Measured values from patent US20240398831A1, “COMPOSITIONS COMPRISING SMALL MOLECULE REGULATORS OF TUMOR IMMUNITY AND METHODS OF USING SAME” (Duke University, priority 2021, published 2024).

How the values were obtained:
BPD6 tumors = experiment: BPD6 syngeneic melanoma tumor model in ovariectomized mice (tumor growth, flow cytometry); type: in vivo, mouse
Source text: FIGS. 18E-18G show quantification of M1 macrophages (MHCII^hi CD206^−ive), GZMB^+CD8^+ T cells, and PD1^+CD8^+ T cells in YuMM5.2 tumors from FIG. 18C (n=4). […] Vehicle+IgG (n=10, red), fulvestrant+IgG (n=15, blue), vehicle+ICB (n=15, black), and fulvestrant+ICB (n=15, brown). Black arrow indicates start of ICB treatment regimen. […] Vehicle+IgG (n=9, red), fulvestrant+IgG (n=8, blue), vehicle+ICB (n=9, black), and fulvestrant+ICB (n=10, brown). Black arrow indicates start of anti-PD1 treatment regimen. […] FIGS. 18A-18C are representative of two individual experiments. Data are expressed as mean 3 S.E.M. Significance was calculated by one-way ANOVA followed by Bonferroni's multiple correction (FIG. 18K), by Student's t test (FIG. 18L), and by log rank test (FIG. 18M) (*p<0.05, **p<0.01, and ***p<0.001).
(§1) Tumor models and cells. The mouse B16F10 and Yumm5.2 cell lines were purchased from American Type Culture Collection (ATCC, Manassas, VA). The mouse melanoma cell line BPD6 was established from iBP as described elsewhere (Zhao et al., Immunity 2018, 48, 147-160). B16F10 and BPD6 cells were maintained in Dulbecco's Modified Eagle's Medium (DMEM) supplemented with 8% fetal bovine serum (FBS), 0.1 mM non-essential amino acids (NEAA) and 1 mM sodium pyruvate. YuMM5.2 cells were maintained in DMEM/F12 media supplemented with 10% FBS. The cells were replated 3 times/week at a confluency of 1:10 and were kept in a 37° C. incubator at 5% CO2. For subcutaneous tumor models B16F10 (5×10^4 or 1×10^5), YuMM5.2 (5×10^5), and BPD6 (5×10^5) cells were injected into the right flank of the mice. For iBP mice, tumors were induced with a single intradermal dose of 4-hydroxytamoxifen in DMSO (150 μg/mouse). Tumors were measured thrice weekly using an electronic caliper. Tumor volumes were calculated by the formula V=L×(W×W)/2. For iBP mouse tumors, volumes were calculated by the formula V=L×B×H. For tumor growth rate studies mice were euthanized when the tumors reached a maximum size of 2000 mm^3.
(§2) Ovarlectomy and subcutaneous pellet Insertion. Ovariectomy was performed as previously described (Nelson et al., Science 2013, 342, 1094-1098). Eight days prior to tumor inoculation, 7 weeks old C57BL/6J or 5 weeks old (iBP) female mice were subjected to ovariectomy or sham surgery. Mice were anesthetized in an inhalation chamber (2% Isoflurane) and maintained in half the dose of isoflurane (1%) via nose cone throughout the surgical process. Prior to surgery, mice were administered a 5 mg/kg dose of carprofen subcutaneously. The area below the ribs was shaved with an electronic razor and the skin was sterilized by rubbing with betadine and alcohol (3× alternating). A horizontal incision was made through the skin above the ovary fat pad, followed by a vertical incision through the abdominal muscle wall. The ovary was externalized and removed using a cauterizing scissors (or returned if sham). Fat pad was replaced, and muscle walls were opposed and sutured (1-2 stitches). Following suturing, 1 drop of bupivacaine (0.25%) was added on top of the incision site. The skin was opposed, and a wound clip was placed on the incision site. This was repeated for the other ovary. The mouse was then removed from anesthesia and kept in a clean cage and monitored until conscious. The mice were monitored for recovery for 10 days.
Fulvestrant treatment Mice were injected with fulvestrant (Cat #HY-13636 MedChemExpress) 2 days after tumor injection at a dose of 25 mg/kg via intramuscular route. […]

B16F10 tumors = experiment: B16F10 syngeneic melanoma tumor model in ovariectomized mice (tumor growth, flow cytometry); type: in vivo, mouse
Experimental: as §1, §2
Single cell isolation from tumors. Tumors were isolated, minced on a petri dish in media (DMEM+5% FBS), and then enzymatically digested by the addition of 100 μg/mL DNase I (D5025-150KU, Sigma-Aldrich) and 1 mg/mL collagenase (Collagenase A, Cat #10103586001, Sigma-Aldrich) for 30 mins-45 mins. For iBP models, isolated tumors were sliced into large chunks and subjected to mechanical digestion in a gentleMACS Dissociator for 30 seconds twice. Following this, tumors were digested with an enzyme cocktail containing DNase I, collagenase, and hyaluronidase (100 μg/mL) (H6254, Sigma-Aldrich) for 40 mins following a second round of mechanical digestion for 30 seconds (twice). The cells were then filtered through a 40 μm strainer to produce single cell suspensions and the enzymes were diluted by addition of additional media then spun down to remove media. Red blood cells were lysed with the addition of ACK lysis buffer (Cat #A1049201. ThermoFisher Scientific) for 4 mins at room temperature. Following red blood cell lysis, cells were washed with PBS before proceeding to flow cytometry staining or magnetic bead-based isolation.
Flow cytometry staining. Single cells suspensions (10^6 cells in 50 μL) were incubated with Live/dead fixable dead cell stain in PBS for 10 mins at 4° C. Cells were spun down at 1000×g and were incubated with anti-CD16/32 (Catalog #14-0161-85, ThermoFisher Scientific) in flow buffer (10 gms BSA in 1 L PBS+sodium azide) for 15 mins. […]

YuMM5.2 cells = experiment: Quantitative PCR of Wnt5A-β-catenin targets in melanoma tumor cells; type: cell-based, mouse
[1] = E2 vs placebo, ovariectomized C57BL/6J
[2] = fulvestrant 25 mg/kg, E2 supplemented mice

Row | Compound | tumor growth (BPD6 tumors; [1]) | percentage of Ly6C+/Ly6G+ MDSCs in tumors (BPD6 tumors; flow cytometry, E2 vs placebo) | tumor promoting effects of E2, tumor cells co-mixed with BMDM (1:1) (B16F10 tumors; BMDM from Esr1^f/f, LysMCre versus Esr1^f/f) | tumor growth (B16F10 tumors; [1]) | tumor growth (B16F10 tumors; Esr1^f/f and LysMCre control mice) | tumor growth (B16F10 tumors; Esr1^f/f, LysMCre mice (myeloid ERα knockout)) | infiltration of immune cells (CD45+) (B16F10 tumors; flow cytometry, E2 vs placebo) | percentage of Ly6C+/Ly6G+ MDSCs in tumors (B16F10 tumors; flow cytometry, E2 vs placebo) | ratio of intratumoral M1 (MHCII^hi CD206−) to M2 (MHCII^lo CD206+/hi) macrophages (B16F10 tumors; flow cytometry, E2 vs placebo) | expression of WNT5A-β-catenin targets (YuMM5.2 cells; E2 (1 nM)) | intratumoral M1/M2 ratio (BPD6 tumors; E2 treated mice co-treated with fulvestrant) | tumor growth (BPD6 tumors; PD1 sensitive model, fulvestrant alone) | tumor growth (BPD6 tumors; [2]) | tumor growth (B16F10 tumors; [2]) | expression of WNT5A-β-catenin targets (YuMM5.2 cells; E2 (1 nM)+fulvestrant (100 nM))
1 | 17β-estradiol [E2] | significantly increased | no changes | significantly compromised | significantly increased | increased | not evident | not impacted by treatment | no changes | decreases | did not change |  |  |  |  | 
2 | C[C@]12CC[C@@H]3c4ccc(O)cc4C[C@@H](CCCCCCCCC[S+]([O-])CCCC(F)(F)C(F)(F)F)[C@H]3[C@@H]1CC[C@@H]2O (stereo partly drawn) [fulvestrant] |  |  |  |  |  |  |  |  |  |  | increase | slows tumor growth | significantly reduced | significantly reduced | did not change
